{
  "source": "paper PMC7444556",
  "about": "“MrpH, a new class of metal-binding adhesin, requires zinc to mediate biofilm formation” (PLoS Pathogens, 2020)",
  "format_in_all_cases": "binding",
  "key": {"MrpH159 (MrpHntd) [1]": {"target": "T1, MrpH159 (MrpHntd) (Proteus mirabilis, UniProt B4EUK6)", "T1 construct": "gene mrpH; pEXP5-CT/TOPO (His-tag, Ni-NTA, no cleavage told); expressed in E. coli BL21-AI", "T1 sequence (B4EUK6 entry or part of it)": "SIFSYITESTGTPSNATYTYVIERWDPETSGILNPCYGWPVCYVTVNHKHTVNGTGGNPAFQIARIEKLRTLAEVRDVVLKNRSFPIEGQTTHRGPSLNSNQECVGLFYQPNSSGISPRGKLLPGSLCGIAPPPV", "conditions": "10 mM ligand, 10 uM protein, 24 mM NaCl, 6 mM HEPES pH 7.5, reference storage buffer 65.2±0.30 °C", "text": "thermal shift assay (SYPRO Orange) on MrpH159 (MrpHntd)"}, "MrpH159 (MrpHntd) [2]": {"target": "T1, MrpH159 (MrpHntd)", "assay": "X-ray crystal structure, […] Å", "conditions": "side chain carboxyl ligates Zn2+; ligand not added, picked up during expression, assigned from electron density"}, "MrpH153 (MrpHntd)": {"target": "T2, MrpH153 (MrpHntd) (Proteus mirabilis, UniProt B4EUK6)", "T2 construct": "gene mrpH; C-terminal His-tag kept; expressed in E. coli", "T2 sequence (B4EUK6 entry or part of it)": "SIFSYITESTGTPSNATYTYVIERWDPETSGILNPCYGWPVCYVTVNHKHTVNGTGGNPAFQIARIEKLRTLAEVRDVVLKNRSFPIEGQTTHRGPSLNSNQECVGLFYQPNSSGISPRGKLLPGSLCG", "assay": "thermal shift assay", "conditions": "10 mM ammonium tartrate pH 7.0, 100 mM NaCl; reference 66.7 ± 0.6 °C in 10 mM HEPES pH 7.5"}},
  "note": "Structures can show the parent of a compound that is named as a salt. Where two headings read alike, the source gives them in different places.",
  "data": [
    {"smiles": "CC(=O)O", "note": "[Sodium acetate]", "values": [
      {"measurement": "<Tm> (°C)^a", "setting": "MrpH159 (MrpHntd) [1]", "result": "76.3±0.56", "unit": "°C"}
    ]},
    {"smiles": "O=C(O)CC(O)(CC(=O)O)C(=O)O", "note": "[Sodium citrate]", "values": [
      {"measurement": "<Tm> (°C)^a", "setting": "MrpH159 (MrpHntd) [1]; citrate pH not stated", "result": "73.3±0.64", "unit": "°C"}
    ]},
    {"smiles": "O=CO", "note": "[Sodium formate]", "values": [
      {"measurement": "<Tm> (°C)^a", "setting": "MrpH159 (MrpHntd) [1]", "result": "68.4±0.75", "unit": "°C"}
    ]},
    {"smiles": "N[C@@H](CCC(=O)O)C(=O)O", "note": "[glutamic acid]", "values": [
      {"measurement": "X-ray crystal structure, 1.75 Å", "setting": "MrpH159 (MrpHntd) [2]", "result": "we have assigned glutamic acid as the bound ligand in the MrpH159 structure"},
      {"measurement": "<Tm> (°C)^a", "setting": "MrpH159 (MrpHntd) [1]", "result": "73.1±0.21", "unit": "°C"}
    ]},
    {"smiles": "O=C(O)C(O)C(O)C(=O)O", "note": "(stereo not shown) [tartrate]", "values": [
      {"measurement": "<Tm> (°C)^a", "setting": "MrpH159 (MrpHntd) [1]", "result": "80.1±0.70", "unit": "°C"},
      {"measurement": "Tm", "setting": "MrpH153 (MrpHntd)", "result": "78.5 ± 0.1", "unit": "°C"}
    ]}
  ]
}
